Reference: patent publication US9085559B2, “Triazine-aryl-bis-indoles and process for preparation thereof” (COUNCIL OF SCIENTIFIC & INDUSTRIAL RESEARCH, priority 2010, dated 2015)

System: PDE-4
Experiment: Phosphodiesterase 4 assay ([3H]cAMP SPA), enzyme preparation from rat heart
Type: biochemical
Settings: PDE-4 activity, dose 10 μg/ml
Description: FIG. 2. […] To examine whether IICT-TA67 inhibits PDE-4 activity in vitro, enzyme preparations were incubated in the absence or presence of different concentrations (1-20 μg/ml) of IICT-TA67 and breakdown of cAMP was monitored by β counter.
Table 1. Measurement of phosphodiesterase (PDE)-4 activity by compounds.
Heart was excised from anesthetized rat and transfer into normal saline solution. […] The homogenate was centrifuged at 500×g for 5 minute at 4° C. Then sup was taken for further centrifuged at 40,000×g for 30 minute (ultra centrifugation). After centrifugation supernatant was collected for phosphodiesterase assay. Protein concentration was estimated and for each assay, 2.5 μg protein (PDE enzyme preparation) was used.
Phosphodiesterase 4 assay: Phosphodiesterase 4 assay was conducted with [^3H] cAMP SPA enzyme assay (GE Amersham, UK) using 2.5 μg enzyme preparation for each well. Into each well 60 μl water, 10 μl assay buffer supplied with the kit, 10 μl compound (inhibitor), 10 μl PDE enzyme or homogenizing buffer (blank) and 10 μl radiolabel led cAMP ([^3H]cAMP, GE Amersham, UK) were added. To check activity of the enzyme without inhibitor 10 μl DMSO was added in place of inhibitor to a separate well. The reaction mixtures were incubated for 30 mi at 30° C. The reaction was stopped by adding 50 μl SPA bead supplied with the kit. It was then mixed well and allowed to stand at room temperature for 20 min. Breakdown of cAMP in each tube was monitored by β counter. The reading in each tube was obtained in counts per minute (CPM). The reading of the blank tube (without enzyme) was subtracted from each tube to normalize the counts. The enzyme activity was calculated by considering the CPM reading without any inhibitor (compound) as 100.

| Structure (SMILES) | Inhibition % [%] |
| --- | --- |
| COc1cc(C(c2cc3ccccc3[nH]2)c2cc3ccccc3[nH]2)ccc1Oc1nc(NC2CC2)nc(NC2CC2)n1 [Compound 1, 2,2′-[2,2′-4-(4,6-bis-cyclopropylamino)-1,3,5-triazin-2-yl-oxy-3-methoxyphenyl]-methylene-bis-1H-indole] | 16 |
| COc1cc(C(c2cc3ccccc3[nH]2)c2cc3ccccc3[nH]2)ccc1Oc1nc(Nc2ccccc2)nc(Nc2ccccc2)n1 [Compound 2, 2,2′-[2,2′-4-(4,6-bis-anilino)-1,3,5-triazin-2-yl-oxy-3-methoxyphenyl]-methylene-bis-1H-indole] | 34 |
| COc1cc(C(c2[nH]c3ccccc3c2CC(=O)O)c2[nH]c3ccccc3c2CC(=O)O)ccc1Oc1nc(NC2CC2)nc(NC2CC2)n1 [Compound 3, 2,2′-[2,2′-4-(4,6-bis-cyclopropylamino)-1,3,5-triazin-2-yl-oxy-3-methoxyphenyl]-methylene-bis-(1H-indole-3,3-diyl)-diacetic acid] | 42 |
| COc1cc(C(c2[nH]c3ccccc3c2CC(=O)O)c2[nH]c3ccccc3c2CC(=O)O)ccc1Oc1nc(Nc2ccccc2)nc(Nc2ccccc2)n1 [Compound 4, 2,2′-[2,2′-4-(4,6-bis-anilino)-1,3,5-triazin-2-yl-oxy-3-methoxyphenyl]-methylene-bis-(1H-indole-3,3-diyl)-diacetic acid] | 31 |
| COc1ccc(C(c2cc3ccccc3[nH]2)c2cc3ccccc3[nH]2)cc1Oc1nc(NC2CC2)nc(NC2CC2)n1 [Compound 5, 2,2′-[2,2′-3-(4,6-bis-cyclopropylamino)-1,3,5-triazin-2-yl-oxy-4-methoxyphenyl]-methylene-bis-1H-indole] | 34 |
| COc1ccc(C(c2cc3ccccc3[nH]2)c2cc3ccccc3[nH]2)cc1Oc1nc(Nc2ccccc2)nc(Nc2ccccc2)n1 [Compound 6, 2,2′-[2,2′-3-(4,6-bis-anilino)-1,3,5-triazin-2-yl-oxy-4-methoxyphenyl]-methylene-bis-1H-indole] | 45 |
| COc1ccc(C(c2[nH]c3ccccc3c2CC(=O)O)c2[nH]c3ccccc3c2CC(=O)O)cc1Oc1nc(Nc2ccccc2)nc(Nc2ccccc2)n1 [Compound 8, 2,2′-[2,2′-3-(4,6-bis-anilino)-1,3,5-triazin-2-yl-oxy-4-methoxyphenyl]-methylene-bis-(1H-indole-3,3-diyl)-diacetic acid] | 73 |
| Clc1nc(NC2CC2)nc(NC2CC2)n1 [Compound 10, 6-Chloro-N^2,N^4-dicyclopropyl-1,3,5-triazine-2,4-diamine] | 44 |
| Clc1nc(Nc2ccccc2)nc(Nc2ccccc2)n1 [Compound 11, 6-Chloro-N^2,N^4-diphenyl-1,3,5-triazine-2,4-diamine] | 53 |
| COc1cc(C=O)ccc1Oc1nc(NC2CC2)nc(NC2CC2)n1 [Compound 12, 4-[4,6-Bis-cyclopropylamino-1,3,5-triazin-2-yl-oxy]-3-methoxy benzaldehyde] | 29 |
| COc1cc(C=O)ccc1Oc1nc(Nc2ccccc2)nc(Nc2ccccc2)n1 [Compound 13, 4-[4,6-Bis-anilino-1,3,5-triazin-2-yl-oxy]-3-methoxy benzaldehyde] | 30 |
| COc1ccc(C2CNC(=O)C2)cc1OC1CCCC1 (centres unmarked) [Rolipram, reference compound] | 69 |

System: not listed separately
Experiment: Pharmacokinetic study, oral and i.v. route
Type: in vivo, swiss mice
Settings: mouse, in vivo
Description: FIG. 6. Pharmacokinetics of IICT-TA67 through oral route. FIG. 7. Pharmacokinetics of IICT-TA67 through intravenous (i.v) route in mice. IICT-TA67 (20 mg/kg) was administered orally (or 10 mg/kg by i.v. route) as a fine suspension in 1% Gum acacia. Blood samples were drawn from retro-orbital plexus at designated times in pre-labeled heparinised tubes and centrifuged (3500 rpm×10 minutes) to obtain the plasma. Blood samples were collected at 0, 5, 15 and 30 min, and 1, 2, 4, 6, 8, 16 and 24 hrs post-administration after oral/iv route. HPLC determinations were done on Shimadzu chromatograph (Model: LC-10 Atvp equipped with a diode array detector). The Molecule ICT-TA67 was determined at 276 nm using RP-18 column (5 μm×25 cm). Mobile phase consisted of acetonitrile: water (55:45) with a flow rate of 1.0 ml/min.
Animals. Healthy swiss mice of both the sexes (25-30) were used. The animals were kept (3/cage) under controlled conditions (temp 26±2° C.; relative humidity 50±5%; 12 h light/dark cycle) and maintained on pelleted rodent diet (Ashirwad Industries Ltd. Chandigarh, India). Water was provided ad libitum. Institutional Animal Ethics committee approved the animal experiments. Animals were fasted for 16 hours before use.
Step 1: Dosing: IICT-TA67 (20 mg/kg) was administered orally (or 10 mg/kg by i.v.route) as a fine suspension in 1% Gum acacia. Blood samples were drawn from retro-orbital plexus at designated times in pre-labeled heparinised tubes and centrifuged (3500 rpm×10 minutes) to obtain the plasma. Blood samples were collected at 0, 5, 15 and 30 min, and 1, 2, 4, 6, 8, 16 and 24 hrs post-administration after oral/iv route.
Step 2: HPLC determinations: Aliquots of plasma were mixed with acetonitrile (1:2), vortexed for two minutes (2500 rpm) and centrifuge at 5000 rpm for 10 min. The organic layer was collected and evaporated to dryness using solvent evaporator (Model: SPD 111V, Thermo Electron Corporation, MA). The dried samples were reconstituted in mobile phase for HPLC analysis. In a similar manner samples were also prepared from aliquots of plasma collected from untreated animals which were spiked with molecule 67 (0.25 μg-10 μg/ml). […] Reproducibility of the method was defined by both intra-, and inter-day variance. The retention time of Mol. 67 was 10.688 min, at which no other interfering peak was observed. The lower limit of detection (LOD) was 11 ng/ml; limit of quantitation (LOQ) was 32 ng/ml; recovery was 90±2%.
HPLC determinations were done on Shimadzu chromatograph (Model: LC-10 Atvp equipped with a diode array detector). Molecule 67 was determined at 276 nm using RP-18 column (5 μm×25 cm). Mobile phase consisted of acetonitrile: water (55:45) with a flow rate of 1.0 ml/min.
Step 3: Calculating Bioavailability indices: A concentration-time curve for Molecule 67 was established and pharmacokinetic parameters AUC, Cmax, and tmax were determined by a non-compartmental analysis using TOPFIT software package. Absolute bioavailability was determined using the following formula: AUCoral×doseiv/AUCiv×Doseoral.

| Structure (SMILES) | bioavailability and pharmacokinetics |
| --- | --- |
| COc1ccc(C(c2[nH]c3ccccc3c2CC(=O)O)c2[nH]c3ccccc3c2CC(=O)O)cc1Oc1nc(Nc2ccccc2)nc(Nc2ccccc2)n1 [Compound 8, 2,2′-[2,2′-3-(4,6-bis-anilino)-1,3,5-triazin-2-yl-oxy-4-methoxyphenyl]-methylene-bis-(1H-indole-3,3-diyl)-diacetic acid] | potentially bioavailable with good pharmacokinetics |

System: BALB/c 3T3 cell line
Experiment: Balb/c 3T3 Neutral Red Uptake (NRU) cytotoxicity assay
Type: cell-based
Settings: NRU cytotoxicity test (FIG. 8)
Source text: FIG. 8. IICT-TA67 is not toxic. To evaluate the cytotoxicity of test chemical (IICT-TA67) BALB/c 3T3 cell line was used for Neutral Red Uptake (NRU) cytotoxicity test. The test result has been used to determine IC50 for IICT-TA67 and acute oral toxicity (LD50) in rodent was predicted.
Basal cytotoxicity of IICT-TA67 has been performed to measure IC50 and thereafter predict in vivo acute oral LD50 values in rodent by using Halle's Registry of cytotoxicity (RC) prediction model: log (LD50)=0.435×log (IC50)+0.625 (Halle, 1998; Spielmann et al., 1999). Balb/c 3T3 Neutral Red Dye Uptake (NRU) cytotoxicity assay procedure was adopted (Liebsch & Spielmann 1995). In brief 3T3 cell were grown in 96 well microtitre plates and exposed to IICT-TA-67. After 48-hour incubation, the test material was removed and Neutral red (NR) solution was applied to the cells. The cells were incubated again, the excess NR solution was removed and finally NR was eluted from the cells. The NRU was determined by using a microtitre plate reader to measure the optical density at 540 nm of the eluted dye in 96 well plate. A calculation of cell viability expressed as NRU was made for each concentration of the test chemical by using the mean NRU of 6 replicate values per test concentration. The cell viability value was compared with the mean NRU of all vehicle control values and relative cell viability was then expressed as percent of untreated vehicle control. […] Although the percentage of viability is slightly more than 95% at 50 μg/ml of IICT-67, 30 μg/ml (% viability of cells is 98%)

| Structure (SMILES) | toxicity |
| --- | --- |
| COc1ccc(C(c2[nH]c3ccccc3c2CC(=O)O)c2[nH]c3ccccc3c2CC(=O)O)cc1Oc1nc(Nc2ccccc2)nc(Nc2ccccc2)n1 [Compound 8, 2,2′-[2,2′-3-(4,6-bis-anilino)-1,3,5-triazin-2-yl-oxy-4-methoxyphenyl]-methylene-bis-(1H-indole-3,3-diyl)-diacetic acid] | potentially non toxic |
